Assay results: the NIST ThermoML archive (doi:10.1021/je301347v)
Numbers after ± are expanded uncertainties.

Conditions: 101 kPa, Liquid, Voltage change across transformer (no electrode)

Row | SMILES | electrical conductivity (293.15 K) [S/m] | electrical conductivity (303.15 K) [S/m] | electrical conductivity (313.15 K) [S/m] | electrical conductivity (323.15 K) [S/m]
1 | CCCC[n+]1cccc(C)c1.F[B-](F)(F)F [1-butyl-3-methylpyridinium tetrafluoroborate] | 0.155 ± 0.0016 | 0.281 ± 0.003 | 0.461 ± 0.005 | 0.704 ± 0.007
2 | CCCC[n+]1ccc(C)cc1.F[B-](F)(F)F [1-butyl-4-methylpyridinium tetrafluoroborate] | 0.1318 ± 0.0013 | 0.254 ± 0.003 | 0.439 ± 0.004 | 0.687 ± 0.007
3 | CCCC[n+]1ccccc1.F[B-](F)(F)F [1-butylpyridinium tetrafluoroborate] | 0.181 ± 0.0036 | 0.321 ± 0.006 | 0.519 ± 0.01 | 0.785 ± 0.016
